# Experimental data: ChEMBL document CHEMBL1137972, “Synthesis and anti-HCMV activity of 1-acyl-beta-lactams and 1-acylazetidines derived from phenylalanine” (Bioorg Med Chem Lett, 2004)
# What was measured:
# [1] = test system: HEL; test: Cytotoxic concentration required to reduce HEL cell growth by 50%; assay type: functional; details: Homo sapiens
# [2] = test system: HEL; test: Effective concentration against human cytomegalovirus Davies strain in HEL cell cultures; assay type: functional, cell-based
# [3] = test system: HEL; test: Effective concentration against human cytomegalovirus AD-169 strain in HEL cell cultures; assay type: functional, cell-based
Compound,CC50 [1] [µM],EC50 [2] [µM],EC50 [3] [µM]
C[C@H](NC(=O)N1C(=O)C[C@]1(Cc1ccccc1)C(=O)O)c1ccccc1,> 200,> 200,> 200
Nc1nc2c(ncn2COC(CO)CO)c(=O)[nH]1 [GANCICLOVIR],> 150,0.8,0.9
CC(C)(C)OC(=O)C1(Cc2ccccc2)CC(=O)N1C(=O)Nc1ccccc1 (centres undefined),118,50,50
C[C@@H](NC(=O)N1C(=O)C[C@]1(Cc1ccccc1)C(=O)O)c1ccccc1,> 200,> 50,> 50
C[C@H](NC(=O)N1C(=O)C[C@]1(Cc1ccccc1)C(=O)OC(C)(C)C)c1ccccc1,164,33,32
C[C@H](NC(=O)N1C(=O)C[C@@]1(Cc1ccccc1)C(=O)O)c1ccccc1,187,> 50,> 50
C[C@@H](NC(=O)N1C(=O)C[C@@]1(Cc1ccccc1)C(=O)O)c1ccccc1,> 200,> 200,> 200
CC(C)(C)OC(=O)C1(Cc2ccccc2)CC(=O)N1C(=O)OCc1ccccc1 (centres undefined),36,13,11
CC(C)(C)OC(=O)C1(Cc2ccccc2)CCN1C(=O)OCc1ccccc1 (centres undefined),34,0.62,0.74
Nc1ccn(C[C@@H](CO)OCP(=O)(O)O)c(=O)n1 [CIDOFOVIR],> 150,0.5,0.16
O=C1C[C@H](Cc2ccccc2)N1C(=O)NCc1ccccc1,> 750,,53
C[C@@H](NC(=O)N1C(=O)C[C@]1(Cc1ccccc1)C(=O)OC(C)(C)C)c1ccccc1,> 200,107,100
C[C@@H](NC(=O)N1C(=O)C[C@@]1(Cc1ccccc1)C(=O)OC(C)(C)C)c1ccccc1,70,33,32
C[C@H](NC(=O)N1C(=O)C[C@@]1(Cc1ccccc1)C(=O)OC(C)(C)C)c1ccccc1,184,35,35
CC(C)(C)OC(=O)N1C(=O)CC1(Cc1ccccc1)C(=O)OC(C)(C)C (centres undefined),> 200,> 200,> 200
